The target in one assay is T1, PPM1K (Homo sapiens, UniProt Q8N3J5).
T1 sequence (Q8N3J5 30-372): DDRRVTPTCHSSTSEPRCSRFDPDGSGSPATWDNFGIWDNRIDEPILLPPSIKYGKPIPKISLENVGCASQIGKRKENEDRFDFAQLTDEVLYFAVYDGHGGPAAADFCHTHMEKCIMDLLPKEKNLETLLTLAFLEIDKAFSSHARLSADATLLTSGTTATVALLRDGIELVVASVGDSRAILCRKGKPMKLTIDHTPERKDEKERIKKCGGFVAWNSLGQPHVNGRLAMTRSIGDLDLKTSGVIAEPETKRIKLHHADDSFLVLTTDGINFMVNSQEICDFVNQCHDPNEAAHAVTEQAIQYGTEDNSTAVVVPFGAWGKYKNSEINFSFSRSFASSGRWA
The experiment in a line: pNPP hydrolysis phosphatase assay (selectivity panel). The assay is classed as biochemical. The settings on record: pNPP as substrate.

For a further assay, the system named is topoisomerases. The experiment in a line: Topoisomerase inhibition in vitro. The assay is classed as biochemical. The settings on record: data not shown.
Another assay deals with HL7702 cells. The experiment in a line: Western blot of protein phosphorylation after HN252 treatment. The assay is classed as cell-based. As to the method:
HL7702, COS7, PC‐3 and HCT116 cells were purchased from the Cell Bank of the Shanghai Institute for Biological Sciences, Chinese Academy of Science. HCT116, COS7 and PC3 cells were cultured in DMEM (Gibco); HL7702 cells were cultured in RPMI 1640 medium (Gibco). All media were supplemented with 10% foetal bovine serum (Biological Industries), 100 IU penicillin and […] streptomycin at 37°C in a humidified incubator with 5% CO2.

For the next assay, the target named is T2, SSH2 (Homo sapiens, UniProt Q76I76).
T2 sequence (Q76I76 1-1423): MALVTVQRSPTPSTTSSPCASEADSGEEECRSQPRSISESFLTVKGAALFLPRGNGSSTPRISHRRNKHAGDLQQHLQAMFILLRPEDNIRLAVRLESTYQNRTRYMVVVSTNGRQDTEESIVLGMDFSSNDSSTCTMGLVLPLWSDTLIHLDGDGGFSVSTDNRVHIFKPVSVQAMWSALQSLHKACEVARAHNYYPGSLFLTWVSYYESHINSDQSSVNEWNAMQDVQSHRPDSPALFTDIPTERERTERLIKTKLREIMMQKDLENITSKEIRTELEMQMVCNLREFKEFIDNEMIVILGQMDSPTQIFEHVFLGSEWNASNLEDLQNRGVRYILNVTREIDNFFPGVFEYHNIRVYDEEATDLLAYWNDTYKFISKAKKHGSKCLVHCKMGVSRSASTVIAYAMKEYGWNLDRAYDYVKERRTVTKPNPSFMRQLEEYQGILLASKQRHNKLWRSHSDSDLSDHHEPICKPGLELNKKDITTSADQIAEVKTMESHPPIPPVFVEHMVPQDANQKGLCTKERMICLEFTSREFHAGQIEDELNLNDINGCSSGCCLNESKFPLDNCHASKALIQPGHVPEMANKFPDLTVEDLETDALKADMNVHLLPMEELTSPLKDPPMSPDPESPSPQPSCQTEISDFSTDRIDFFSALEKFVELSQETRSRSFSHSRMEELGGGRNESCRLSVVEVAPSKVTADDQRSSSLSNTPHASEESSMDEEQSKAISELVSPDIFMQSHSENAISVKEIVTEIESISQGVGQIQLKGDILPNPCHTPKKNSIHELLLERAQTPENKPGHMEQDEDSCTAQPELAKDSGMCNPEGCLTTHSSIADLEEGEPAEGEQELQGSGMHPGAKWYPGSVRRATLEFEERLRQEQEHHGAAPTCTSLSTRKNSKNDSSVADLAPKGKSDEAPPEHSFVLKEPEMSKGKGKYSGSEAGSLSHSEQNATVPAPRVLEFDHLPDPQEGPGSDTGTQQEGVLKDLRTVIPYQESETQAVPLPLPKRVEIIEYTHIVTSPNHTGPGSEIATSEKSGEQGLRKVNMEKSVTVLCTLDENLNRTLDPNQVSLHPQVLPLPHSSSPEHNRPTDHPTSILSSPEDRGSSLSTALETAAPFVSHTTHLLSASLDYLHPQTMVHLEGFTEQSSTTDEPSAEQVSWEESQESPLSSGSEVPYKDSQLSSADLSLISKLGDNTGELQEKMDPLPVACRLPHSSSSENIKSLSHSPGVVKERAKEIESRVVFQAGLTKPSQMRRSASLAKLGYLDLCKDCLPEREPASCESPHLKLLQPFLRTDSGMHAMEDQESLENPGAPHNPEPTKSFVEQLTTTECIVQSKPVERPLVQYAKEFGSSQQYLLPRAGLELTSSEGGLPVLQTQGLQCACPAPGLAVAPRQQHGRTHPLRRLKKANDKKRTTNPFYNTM
Put plainly: pNPP hydrolysis phosphatase assay (selectivity panel). The settings on record: pNPP as substrate. The assay is classed as biochemical.

Assay [1] relates to HL7702 cells with PPM1B shRNA. The experiment in a line: Phospho Explorer Antibody Microarray, PPM1B knockdown plus HN252. The settings on record: in the presence of HN252.
Protocol: Phosphorylation profiling was performed by using the Phospho Explorer Antibody Microarray from Full Moon BioSystems, Inc (Sunnyvale, CA), according to the protocol which was previously described. ^24 In brief, cell lysates obtained from HL7702 cells treated by HN252 or DMSO for different hours or transfected with lentiviral vectors carrying shRNAs for 36 h were biotinylated with the Antibody Array Assay Kit (Full Moon BioSystems, Inc), and the data were analysed with the GenePixTM Pro 4.0 image analysis software.
In a further assay the target is T3, STEP (Homo sapiens, UniProt P54829).
T3 sequence (P54829 1-565): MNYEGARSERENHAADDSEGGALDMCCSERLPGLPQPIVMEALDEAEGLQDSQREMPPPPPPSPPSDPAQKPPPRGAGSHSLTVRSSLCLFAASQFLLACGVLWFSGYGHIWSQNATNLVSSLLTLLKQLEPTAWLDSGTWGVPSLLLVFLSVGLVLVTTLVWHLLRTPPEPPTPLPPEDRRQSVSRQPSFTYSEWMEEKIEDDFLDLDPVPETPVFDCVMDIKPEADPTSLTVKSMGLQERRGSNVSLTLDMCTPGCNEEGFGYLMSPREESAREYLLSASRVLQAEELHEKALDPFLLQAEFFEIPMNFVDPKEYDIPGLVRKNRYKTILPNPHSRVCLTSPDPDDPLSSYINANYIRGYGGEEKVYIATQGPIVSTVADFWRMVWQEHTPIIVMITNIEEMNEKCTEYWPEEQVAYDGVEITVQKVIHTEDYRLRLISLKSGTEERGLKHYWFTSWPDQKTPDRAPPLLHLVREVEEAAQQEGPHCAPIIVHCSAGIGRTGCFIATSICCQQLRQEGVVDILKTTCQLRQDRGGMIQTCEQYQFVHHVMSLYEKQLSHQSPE
Put plainly: pNPP hydrolysis phosphatase assay (selectivity panel). The assay is classed as biochemical. The settings on record: pNPP as substrate.

The mark [2] stands for this setting: immunoblotting, HN252 5 μM, 2 h.

As a reminder, the IC50 is the concentration that gives 50% inhibition. As to `Nc1cc(-c2ccc(-c3ccc(O)c(O)c3)cc2)ccc1C(=O)O` [HN252], the IC50 was determined as 27.4 ± 3.92 µM on PPM1K, 55.1 ± 2.88 µM at SSH2 and 91.1 ± 10.1 µM against STEP. In addition, the inhibition against topoisomerases result in the assay with topoisomerases is “no inhibition”. In addition, the “phosphorylation of JNK” value in the assay with HL7702 cells (setting [2]) is listed as “up‐regulated”. Moreover, the “phosphorylation of β-catenin” value with HL7702 cells (setting [2]) was “enhanced phosphorylation”. Besides, the “phosphorylation of AMPKα, CDK2 and p38” value with HL7702 cells (increasing concentration of HN252, 2 h) is reported as “dramatically increased”. In assay [1], the “number of proteins with further enhanced phosphorylation compared to PPM1B knockdown (>1.5-fold)” value turned out to be 8.
